The numbers were not newly measured in US20020015956A1, “Compositions and methods for the identification, assessment, prevention, and therapy of human cancers” (priority 2000, published 2002), which cites them from elsewhere.

This data set has as its system tumor. The following applies: animal models.

Regarding `CC(=O)O[C@@]12CO[C@@H]1C[C@H](O)[C@@]1(C)C(=O)[C@H](O)C3=C(C)[C@@H](OC(=O)[C@H](O)[C@@H](NC(=O)OC(C)(C)C)c4ccccc4)C[C@@](O)([C@@H](OC(=O)c4ccccc4)[C@H]21)C3(C)C` [Taxotere, docetaxel], the anti-tumor activity result is on record as “good anti-tumor activity”.
